Laboratory results reported in patent publication US5703097A, “5-pyrrolyl-2-pyridylmethylsulfinyl benzimidazole derivatives” (priority 1994, dated 1997).
Where a name gives a salt, the structure may show the parent alone.

Columns and labels:
H^+ /K^+ -ATPase = biological target: T1, H^+ /K^+ -ATPase (Oryctolagus cuniculus, UniProt P27112); experiment: Inhibition of enzyme activity: in vitro inhibition of H+/K+-ATPase (TEST 1); format: biochemical, rabbit; details: 5 min pre-incubation at 37° C., 4 mM ATP
T1 construct: The gastric mucous membrane was removed from a rabbit; from tissue; host or cells: rabbit gastric mucosa, microsomal fraction (77,000 g)
Protocol: In this test, omeprazole [5-methoxy-2-[[(4-methoxy-3,5-dimethyl-2-pyridinyl)methyl]sulfinyl]-1H-benzimidazole] was used as the control compound.
The gastric mucous membrane was removed from a rabbit and then centrifuged with 77,000 g using a ultra-centrifuge to separate the microsomal fraction which was used as the source of H^+ /K^+ -ATPase enzyme for this test. 60 μg of H^+ /K^+ -ATPase was pre-incubated with the sample (the compound according to the present invention) for 5 minutes at 37° C. and then 4 mM ATP as the substrate and 4 mM Mg^++, 20 mM K^+ as the cofactor were added thereto. Then, the amount of inorganic phosphorus thus produced was determined using a spectrophotometer at 660 nm and converted into the amount of protein. […]

gastric juice secretion = experiment: Effect on inhibition of gastric juice secretion, in vivo, Shay method (TEST 2); set-up: species or system rat (SD male rats); details: for Volume of gastric juice / Inhibition rate, gastric juice secretion: 5 hours; for Volume of gastric juice: pylorus-ligated rats; for Inhibition rate, gastric juice secretion: vs normal group
Protocol: (§1) The specific test methods are as follows.
(§2) SD male rats (200±20 g) were fasted for 24 hours, except for water, and then anesthesized with ether. The abdomen of rats was incised and then the pylorus was ligated. The test compounds were suspended or dissolved in 5% CMC (carboxymethylcellulose) and injected into duodenum. After the abdomen was sutured, the rats were allowed to stand for 5 hours and then sacrificed with ether. The stomach was removed from rats and the gastric juices were collected. The gastric juice was centrifuged with 10,000 xg for 10 minutes at 4° C. to remove the precipitate. The amount of gastric juice and acidity were determined using pH 7.0 end point assay with 0.02N NaOH and then the total acid output was calculated.

gastric acidity = experiment: Effect on inhibition of acidity (total acid output), in vivo, Shay method (TEST 2); set-up: species or system rat (SD male rats); details: for Volume (acidity, total acid output) / Inhibition rate, acidity: 5 hours; for Volume (acidity, total acid output): pylorus-ligated rats; for Inhibition rate, acidity: vs normal group
Protocol: as §1, §2

in vivo = details: mouse, po
Protocol: (§3) Five weeks aged ICR (male, female) mouse were pre-bred in the breeding cage for one week and then the animals showing a smooth gain in body weight were randomly selected and used in this test. The amount to be administered to the test animals was established on the basis of the maximum dose of 4,000 mg/kg with the common ratio of 1.5.
(§4) The test compounds in a powder form were suspended in 0.5% methylcellulose and administered per oral using a syringe. The other specific conditions for administration are described in the following.
(§5) In the above test, the control group received only 0.5% methylcellulose.

ICR (male, female) mouse = experiment: in vivo; details: po
Protocol: as §3, §4, §5

[1] = 3 mg/kg, into duodenum, sodium salt
[2] = 10 mg/kg, into duodenum, sodium salt
[3] = 30 mg/kg, into duodenum, sodium salt
[4] = in words, even at a lower dose than that of the known anti-ulcer agent

T1 sequence (P27112 2-1035 limits assumed): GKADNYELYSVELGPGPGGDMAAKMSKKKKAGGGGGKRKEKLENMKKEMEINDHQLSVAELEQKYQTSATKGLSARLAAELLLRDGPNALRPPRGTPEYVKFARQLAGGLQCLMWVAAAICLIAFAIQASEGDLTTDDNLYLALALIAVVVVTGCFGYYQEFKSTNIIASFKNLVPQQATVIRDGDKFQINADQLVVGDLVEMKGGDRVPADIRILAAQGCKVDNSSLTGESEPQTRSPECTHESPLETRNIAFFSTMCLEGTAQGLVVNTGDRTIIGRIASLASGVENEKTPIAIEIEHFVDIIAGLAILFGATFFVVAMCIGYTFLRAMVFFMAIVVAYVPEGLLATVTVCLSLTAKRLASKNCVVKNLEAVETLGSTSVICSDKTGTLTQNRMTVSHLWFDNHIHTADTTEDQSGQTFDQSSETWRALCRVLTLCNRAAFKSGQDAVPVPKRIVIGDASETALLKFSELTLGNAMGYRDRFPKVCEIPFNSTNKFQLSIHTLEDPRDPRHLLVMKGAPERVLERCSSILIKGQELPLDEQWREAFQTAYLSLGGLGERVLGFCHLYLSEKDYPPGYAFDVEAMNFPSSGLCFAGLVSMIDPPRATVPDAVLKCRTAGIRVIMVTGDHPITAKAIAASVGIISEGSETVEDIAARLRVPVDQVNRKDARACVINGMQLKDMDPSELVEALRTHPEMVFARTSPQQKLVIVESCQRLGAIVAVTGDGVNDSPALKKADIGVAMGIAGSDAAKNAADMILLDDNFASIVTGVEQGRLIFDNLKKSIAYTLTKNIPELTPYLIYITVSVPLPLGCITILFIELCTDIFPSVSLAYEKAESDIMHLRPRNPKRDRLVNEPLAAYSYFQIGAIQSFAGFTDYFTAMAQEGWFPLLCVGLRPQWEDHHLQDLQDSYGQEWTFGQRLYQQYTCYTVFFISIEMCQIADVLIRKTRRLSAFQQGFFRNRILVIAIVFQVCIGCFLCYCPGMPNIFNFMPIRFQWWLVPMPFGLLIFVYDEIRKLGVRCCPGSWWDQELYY
T1 sequence (P18597 whole entry partner): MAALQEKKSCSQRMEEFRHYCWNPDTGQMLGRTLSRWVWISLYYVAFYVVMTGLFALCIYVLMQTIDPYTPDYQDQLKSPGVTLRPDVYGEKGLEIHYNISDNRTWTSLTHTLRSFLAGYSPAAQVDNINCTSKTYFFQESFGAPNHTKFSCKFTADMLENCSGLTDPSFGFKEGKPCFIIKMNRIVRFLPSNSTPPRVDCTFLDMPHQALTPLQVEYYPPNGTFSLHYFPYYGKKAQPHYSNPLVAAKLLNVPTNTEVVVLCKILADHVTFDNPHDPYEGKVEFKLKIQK

SMILES	IC50 (H^+ /K^+ -ATPase)	effect for inhibition of gastric acid secretion (gastric juice secretion; in words)	effect for lowering acidity (gastric acidity; in words)	Volume of gastric juice (gastric juice secretion; 10 mg/kg, into duodenum)	Inhibition rate, gastric juice secretion (gastric juice secretion; 10 mg/kg, into duodenum)	Volume of gastric juice (gastric juice secretion; 30 mg/kg, into duodenum)	Inhibition rate, gastric juice secretion (gastric juice secretion; 30 mg/kg, into duodenum)	Volume (acidity, total acid output) (gastric acidity; 10 mg/kg, into duodenum)	Inhibition rate, acidity (gastric acidity; 10 mg/kg, into duodenum)	Volume (acidity, total acid output) (gastric acidity; 30 mg/kg, into duodenum)	Inhibition rate, acidity (gastric acidity; 30 mg/kg, into duodenum)	Volume of gastric juice (gastric juice secretion; 3 mg/kg, into duodenum)	Inhibition rate, gastric juice secretion (gastric juice secretion; 3 mg/kg, into duodenum)	Volume (acidity, total acid output) (gastric acidity; 3 mg/kg, into duodenum)	Inhibition rate, acidity (gastric acidity; 3 mg/kg, into duodenum)	also measured
COc1ccnc(C[S+]([O-])c2nc3cc(-n4cccc4)ccc3[nH]2)c1C (stereo not shown) [Compound 16, 2-[[(4-methoxy-3-methyl)-2-pyridinyl]methylsulfinyl]-5-(1H-pyrrol-1-yl)-1H-benzimidazole sodium salt]	28 µM	good effects	good effects	–	–	–	–	–	–	–	–	–	–	–	–	Volume of gastric juice (gastric juice secretion; [1]): 2.05 ± 0.16 ml/100 g BW; Inhibition rate, gastric juice secretion (gastric juice secretion; [1]): 41.29%; Volume of gastric juice (gastric juice secretion; [2]): 1.35 ± 0.12 ml/100 g BW; Inhibition rate, gastric juice secretion (gastric juice secretion; [2]): 61.51%; Volume of gastric juice (gastric juice secretion; [3]): 1.17 ± 0.20 ml/100 g BW; Inhibition rate, gastric juice secretion (gastric juice secretion; [3]): 66.61%; Volume (acidity, total acid output) (gastric acidity; [1]): 22.59 ± 2.88 μ Eq/hr; Inhibition rate, acidity (gastric acidity; [1]): 70.05%; Volume (acidity, total acid output) (gastric acidity; [2]): 10.99 ± 3.05 μ Eq/hr; Inhibition rate, acidity (gastric acidity; [2]): 85.43%; Volume (acidity, total acid output) (gastric acidity; [3]): 1.98 ± 1.21 μ Eq/hr; Inhibition rate, acidity (gastric acidity; [3]): 97.37%
CCOc1ccnc(C[S+]([O-])c2nc3cc(-n4cccc4)ccc3[nH]2)c1C (stereo not shown) [Compound 9]	64 µM	good effects	good effects	1.50 ± 0.15 ml/100 g BW	36.04%	1.14 ± 0.12 ml/100 g BW	51.46%	11.84 ± 3.10 μ Eq/hr	56.66%	3.80 ± 1.54 μ Eq/hr	86.09%	–	–	–	–	–
COc1ccnc(C[S+]([O-])c2nc3cc(-n4cccc4)ccc3[nH]2)c1 (stereo not shown) [Compound 8]	91 µM	good effects	good effects	1.42 ± 0.24 ml/100 g BW	28.85%	0.87 ± 0.15 ml/100 g BW	56.09%	14.29 ± 2.81 μ Eq/hr	60.81%	2.92 ± 1.42 μ Eq/hr	91.99%	–	–	–	–	–
COc1ccnc(C[S+]([O-])c2nc3cc(-n4cccc4)ccc3[nH]2)c1C (stereo not shown) [Compound 2, 2-[[(4-methoxy-3-methyl)-2-pyridinyl]methylsulfinyl]-5-(1H-pyrrol-1-yl)-1H-benzimidazole]	23 µM	good effects	good effects	1.31 ± 0.10 ml/100 g BW	64.55%	0.99 ± 0.14 ml/100 g BW	73.11%	10.20 ± 1.93 μ Eq/hr	86.90%	5.32 ± 3.30 μ Eq/hr	93.17%	1.98 ± 0.23 ml/100 g BW	46.45%	31.09 ± 4.10 μ Eq/hr	60.08%	ED50 (gastric juice secretion; Rattus norvegicus, 5 h, rats, into duodenum, read-out: ED50 for the effect on inhibition of gastric acid secretion): 3.6 mg/kg; inhibition of gastric juice secretion (gastric juice secretion; [4]): strong inhibition of gastric juice secretion; ED50 (gastric acidity; Rattus norvegicus, 5 h, rats, into duodenum): 1.6 mg/kg; acidity lowering effect (gastric acidity; [4]): high acidity lowering effect; LD50 (in vivo): ≥ 4000 mg/kg; LD50 (ICR (male, female) mouse): > 4000.0 mg/kg; change in body weight (ICR (male, female) mouse): does not affect the normal change in body weight; change in internal and external organs (ICR (male, female) mouse): no effect on the internal and external organs; safety (ICR (male, female) mouse): very safe compound
COc1ccnc(C[S+]([O-])c2nc3cc(-n4cccc4)ccc3[nH]2)c1C (stereo not shown) [Compound 17]	13 µM	good effects	good effects	1.23 ± 0.20 ml/100 g BW	57.55%	1.15 ± 0.15 ml/100 g BW	60.38%	8.50 ± 1.30 μ Eq/hr	85.79%	6.06 ± 3.05 μ Eq/hr	89.87%	1.31 ± 0.18 ml/100 g BW	54.79%	14.94 ± 3.02 μ Eq/hr	75.02%	–
